Source: US20180319865A1, “Identification of Novel Small Molecule Beta2 Integrin Agonists” (Rush University Medical Center, priority 2016, published 2018)

These compounds were tested against T1, mutant integrin CD11bE320A/CD18 (Homo sapiens, UniProt P11215, E336A) (assay: HTS cell adhesion assay, K562 E320A cells on immobilized fibrinogen). Conditions: Table 3, adhesion to fibrinogen, five point dose-response.
T1 construct: expressed in transfected cells; host or cells: K562 (ATCC)
Assay type: cell-based
Experimental: K562 cells stably expressing CD11c/CD18 (K562 CD11c/CD18) were generated similarly. […] K562 cells stably transfected with mutant integrin CD11bE320A/CD18 (K562 E320A) were generated according to literature protocols. All cell lines were maintained in Iscove's Modified Dulbecco's Medium (IMDM) supplemented with 10% heat-inactivated fetal bovine serum, 50 IU/mL penicillin and streptomycin and 0.5 mg/mL G418.
Cell adhesion assays with immobilized ligands were performed using the general protocol previously described and as illustrated in FIG. 1 [33]. Assays with all different K562 cell lines (K562, K562 CD11b/CD18, K562 CD11c/CD18 and K562 E320A) were performed in an identical fashion. Briefly, 384-well microplates (Corning 3700) were coated with 15 μg/mL fibrinogen (Fg) ligand in PBS^++ overnight at 4° C. At the same time, anti-CD18 (IB4) mAb was also coated. Subsequently, the coated wells were washed with 1% nonfat milk in TBS at room temperature for 1 hour. Next, the wells were washed 3 times with TBS, and the coated microplates were used in the HTS assays.
K562 CD11b/CD18, K562 CD11bE320A/CD18 and K562 CD11c/CD18 cells were washed with TBS, and cells were transferred to the Fg-coated wells of microplates in the assay buffer (Ca^2+ and Mg^2+ for physiological condition, Mn^2+ as the Positive control). A 1 μL aliquot of the compounds were transferred to each washed well with multichannel pipet from the 384-well plates.
The assay plates were incubated at 37° C. in the presence of small-molecule compounds for 30 min. To dislodge the non-adherent cell, the assay plates were gently inverted and kept in inverted position for 20 min at room temperature.
The cells were fixed with 37% formaldehyde in a small volume and the plates were kept inverted for 1 h. Upon the fixation, the solutions in the well were discarded. Next, the cells were fluorescently labeled with DAPI (0.5 μM final in TBS with 0.1% Triton X-100) and the quantitated with “Opera High Content Screening System” (Perkin Elmer).
Cell-adhesion under positive and negative control conditions was used to define the activity scale; signal corresponding to the number of non-small molecule treated cells adherent in activating buffer condition (in the presence of Mn^2+ ions as agonist, PC) was considered maximum (100% binding) and the signal corresponding to the number of non-small molecule treated cells adherent in basal buffer condition (in the presence of 1 mM each of Ca^2+ and Mg^2+, NC) was considered minimum (0% binding).

T1 sequence (P11215 17-1152 E336A): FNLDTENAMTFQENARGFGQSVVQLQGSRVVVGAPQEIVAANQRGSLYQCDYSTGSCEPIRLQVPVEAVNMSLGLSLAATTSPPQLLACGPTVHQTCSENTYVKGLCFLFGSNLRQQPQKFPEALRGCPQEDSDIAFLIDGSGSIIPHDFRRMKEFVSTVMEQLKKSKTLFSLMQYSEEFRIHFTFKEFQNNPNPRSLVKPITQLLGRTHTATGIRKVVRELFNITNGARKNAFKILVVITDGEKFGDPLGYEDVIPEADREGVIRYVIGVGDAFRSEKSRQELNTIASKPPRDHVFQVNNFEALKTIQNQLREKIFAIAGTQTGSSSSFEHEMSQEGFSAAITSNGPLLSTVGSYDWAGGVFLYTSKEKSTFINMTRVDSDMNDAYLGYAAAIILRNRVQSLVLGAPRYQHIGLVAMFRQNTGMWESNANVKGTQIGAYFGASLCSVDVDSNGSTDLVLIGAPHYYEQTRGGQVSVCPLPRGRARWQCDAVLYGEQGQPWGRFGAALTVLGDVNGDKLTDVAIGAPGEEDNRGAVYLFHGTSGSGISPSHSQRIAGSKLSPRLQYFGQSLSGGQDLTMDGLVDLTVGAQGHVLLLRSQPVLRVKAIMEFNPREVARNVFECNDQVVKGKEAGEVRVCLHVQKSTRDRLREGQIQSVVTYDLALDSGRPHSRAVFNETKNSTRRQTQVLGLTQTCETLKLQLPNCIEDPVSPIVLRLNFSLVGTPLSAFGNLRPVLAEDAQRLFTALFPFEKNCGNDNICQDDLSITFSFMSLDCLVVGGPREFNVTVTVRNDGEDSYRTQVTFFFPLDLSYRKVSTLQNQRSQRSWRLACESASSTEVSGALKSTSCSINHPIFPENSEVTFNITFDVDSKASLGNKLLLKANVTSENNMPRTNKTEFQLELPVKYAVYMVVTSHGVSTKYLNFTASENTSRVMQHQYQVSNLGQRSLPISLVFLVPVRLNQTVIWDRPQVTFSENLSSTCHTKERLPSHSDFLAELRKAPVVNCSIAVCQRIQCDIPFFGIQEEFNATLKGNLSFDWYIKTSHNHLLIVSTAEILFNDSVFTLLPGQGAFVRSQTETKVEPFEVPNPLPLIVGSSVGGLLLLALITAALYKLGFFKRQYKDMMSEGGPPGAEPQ
T1 sequence (P05107 23-769 partner): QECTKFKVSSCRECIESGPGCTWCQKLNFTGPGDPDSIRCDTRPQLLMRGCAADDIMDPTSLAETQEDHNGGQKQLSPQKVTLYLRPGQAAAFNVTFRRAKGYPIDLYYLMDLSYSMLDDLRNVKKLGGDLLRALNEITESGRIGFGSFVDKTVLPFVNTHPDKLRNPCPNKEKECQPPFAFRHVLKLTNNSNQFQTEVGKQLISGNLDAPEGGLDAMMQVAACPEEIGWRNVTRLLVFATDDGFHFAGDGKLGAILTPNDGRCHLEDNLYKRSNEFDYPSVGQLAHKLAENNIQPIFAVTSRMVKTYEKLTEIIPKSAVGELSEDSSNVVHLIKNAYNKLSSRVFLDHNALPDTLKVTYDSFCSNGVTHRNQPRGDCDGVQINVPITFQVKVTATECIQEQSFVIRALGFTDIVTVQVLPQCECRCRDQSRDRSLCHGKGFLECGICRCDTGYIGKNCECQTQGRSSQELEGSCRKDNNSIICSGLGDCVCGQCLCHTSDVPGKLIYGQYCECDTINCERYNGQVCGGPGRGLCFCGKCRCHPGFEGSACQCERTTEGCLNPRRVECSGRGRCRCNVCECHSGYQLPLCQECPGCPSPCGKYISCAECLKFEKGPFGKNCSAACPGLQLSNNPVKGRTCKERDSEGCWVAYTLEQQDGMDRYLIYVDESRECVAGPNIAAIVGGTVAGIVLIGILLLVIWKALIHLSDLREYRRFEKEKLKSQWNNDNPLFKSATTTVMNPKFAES

Structure (SMILES) | EC50 [µM] | EC50 E320A
N#Cc1c(-c2ccccc2)cc(-c2ccco2)c(C#N)c1N [Compound 625239] | 7.74 | –
Cc1ccccc1-c1ccc(Nc2ccc(N3CCOCC3)cc2)nn1 [Compound 646977] | 10.1 | –
COc1ccc2nc(O)c(CN(C3CCCCC3)C(c3nnnn3Cc3ccco3)C(C)C)cc2c1 (centres unmarked) [Compound 650199] | 13.3 | –
Cc1csc(NC(=O)CSc2nc3sc(C)c(C)c3c(=O)[nH]2)n1 [Compound 650604] | 9.43 | –
CCOc1ccc(C(=O)Nc2ccc(N3CCCC3)cc2)cc1 [Compound 650825] | 9.86 | –
CCC1CCCCN1S(=O)(=O)c1ccc(S(=O)(=O)N2CCN(S(=O)(=O)CC)CC2)cc1 (centres unmarked) [Compound 651007] | 8.18 | –
CN(C)c1ccc(NC(=O)CN2C(=O)CC(c3ccccc3)=Nc3ccccc32)cc1 [Compound 656131] | 9.97 | –
C=CCOC(=O)C(C#N)c1nc2ccccc2nc1N1CCN(Cc2ccc3c(c2)OCO3)CC1 (centres unmarked) [Compound 660507] | 18.5 | –
Cc1cc(C)cc(-n2c3nc4ccccc4nc3c3c(=O)n(Cc4ccco4)cnc32)c1 [Compound 660761] | 8.8 | –
COc1ccc(-n2c(SCC(=O)Nc3nccs3)nc3sc4c(c3c2=O)CCN(C)C4)cc1 [Compound 664564] | 20.4 | –
CSc1nc(NCCOCCO)c2sc3nc(-c4ccco4)c4c(c3c2n1)CCC4 [Compound 665043] | 9.23 | –
CC(=O)c1ccc(N2C(=O)C3C(C2=O)C(C(=O)c2ccc(Cl)cc2)N2CCCC32)cc1 (centres unmarked) [Compound 665589] | 14.5 | –
COc1ccc(OC)c(NS(=O)(=O)Cc2ccccc2)c1 [Compound 743624] | 15.7 | –
O=C(NCc1ccco1)c1c2c(nc3ccccc13)CCC2 [Compound 862194] | 15.2 | –
COc1ccc(C(=O)Nc2ccc(N3CCCC3)cc2)cc1 [Compound 960708] | 101 | –
O=C(CNS(=O)(=O)c1cccc(Cl)c1)Nc1ccc(-c2nc3ccccc3s2)cc1 [Compound 984329] | 9.23 | –

Structure (SMILES) | EC50 [µM] | EC50 E320A
NS(=O)(=O)c1ccc(NC(=S)NC(=O)c2ccc(-c3ccccc3)cc2)cc1 [Compound 1011163] | 12.9 | –
O=C1NN(c2ccc(Cl)c(Cl)c2)C(=O)/C1=C/c1cccc(OC(=O)c2cccs2)c1 [Compound 1016780] | 7.82 | –
COc1ccc2c(c1)cc(C)c1nnc(SCC(=O)N(C)c3nc(-c4ccccc4)cs3)n12 [Compound 1135734] | 9.42 | –
Cc1ccc2sc(-c3ccc(NC(=O)CCN4C(=O)c5ccccc5C4=O)cc3)nc2c1 [Compound 1193278] | 5.17 | –
COc1ccc(N=c2oc3ccc(OC)cc3cc2-c2nc3ccccc3[nH]2)cc1 [Compound 1212121] | 18.8 | –
CCN(CC)C(=O)c1sc(NC(=O)c2cc(-c3ccc(C)s3)nc3ccccc23)c(C(=O)OC)c1C [Compound 1219756] | 9.94 | –
CC(=O)NC(=S)Nc1ccc(-c2nc3ccc(C)cc3s2)cc1 [Compound 1226649] | 8.47 | –
O=C(Nc1ccc(Br)cc1Cl)c1cnccn1 [Compound 1245695] | 8.47 | –
CCCC(=O)Nc1ccc(-c2cnc(-c3ccc(NC(=O)CCC)cc3)nc2)cc1 [Compound 1272696] | – | Infinite
Cc1nn2c(-c3cccc(NC(=O)CSc4nc5ccccc5o4)c3)nnc2c2ccccc12 [Compound 1290769] | 7.82 | –
COc1ccc(-c2nn(C)c(=O)c3ccccc23)cc1NC(=O)Cn1nc(C)c2ccccc2c1=O [Compound 1314910] | 11.7 | –
O=C(CSc1nc2sc3c(c2c(=O)n1-c1ccccc1)CCCC3)NCc1ccco1 [Compound 1322134] | 12.1 | –
O=C(/C=C/c1ccc(Cl)cc1)NC(=S)Nc1ccc(N2CCOCC2)c(Cl)c1 [Compound 1345254] | 7.53 | –
Cc1cc(C=C2C(=O)N(C)C(=S)N(C)C2=O)c(C)n1C1CCCCC1 [Compound 1347165] | 171 | –
Cc1ccnc(N/C=C(\C#N)c2nc(-c3cccc(Br)c3)cs2)c1 [Compound 1352154] | 8.01 | –
Cc1ccc(-c2cc(C(=O)Nc3ccc(S(=O)(=O)Nc4nccs4)cc3)c3ccccc3n2)c(C)c1 [Compound 1358622] | 13.7 | –
